Data taken from US20090203708A1, “NOVEL SUBSTITUTED-1-H-QUINAZOLINE-2,4-DIONE DERIVATIVES, PREPARATION METHOD THEREOF AND PHARMACEUTICAL COMPOSITION CONTAINING THE SAME” (Korea Research Institute of Chemical Technology, priority 2006, published 2009).

Columns and labels:
[1] = target: T1, 5-HT1a (human recombinant receptor, CHO-K1) (Homo sapiens, UniProt P08908); assay: Radioligand binding assay, 5-HT1a
T1 sequence (P08908 1-422): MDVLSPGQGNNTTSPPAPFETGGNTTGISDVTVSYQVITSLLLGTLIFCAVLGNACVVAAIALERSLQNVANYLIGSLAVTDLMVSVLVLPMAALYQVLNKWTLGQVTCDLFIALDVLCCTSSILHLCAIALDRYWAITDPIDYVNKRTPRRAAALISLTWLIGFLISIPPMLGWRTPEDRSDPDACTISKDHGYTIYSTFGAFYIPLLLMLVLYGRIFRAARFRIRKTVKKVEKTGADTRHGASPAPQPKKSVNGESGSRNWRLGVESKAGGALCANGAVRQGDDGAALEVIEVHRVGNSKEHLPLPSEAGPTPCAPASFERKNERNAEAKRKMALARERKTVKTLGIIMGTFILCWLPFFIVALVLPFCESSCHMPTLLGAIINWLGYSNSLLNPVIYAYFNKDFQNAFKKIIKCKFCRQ

rotarod deficit = assay: Rotarod deficit in mice; type: in vivo; details: for Rotarod Deficit TD50: mice, i.p. 30 min before testing; for rotarod dysfunction: mouse, in vivo, ip, 150 mg/kg, 120 min
Protocol: In order to examine the effects of the compounds of the present invention on the central nervous system and behavior, a rotarod test was performed as follows.
Mice were placed on a plastic rod having a node 1 inch in diameter (Ugo-Basile, Milano, Italy), followed by rotating the rod at a speed of 6 rpm. 30, 60, 90 and 120 min after the administration of test compounds, the mice that fell from the rotating rod within 1 min were counted to determine rotarod deficits (%) (Dunham et al., 1957).

D3 (hD3 receptor) = D3 (hD3 receptor) (Homo sapiens, UniProt P35462); assay: Radioligand binding assay, dopamine D3
Chain of D3 (hD3 receptor) (P35462 whole entry): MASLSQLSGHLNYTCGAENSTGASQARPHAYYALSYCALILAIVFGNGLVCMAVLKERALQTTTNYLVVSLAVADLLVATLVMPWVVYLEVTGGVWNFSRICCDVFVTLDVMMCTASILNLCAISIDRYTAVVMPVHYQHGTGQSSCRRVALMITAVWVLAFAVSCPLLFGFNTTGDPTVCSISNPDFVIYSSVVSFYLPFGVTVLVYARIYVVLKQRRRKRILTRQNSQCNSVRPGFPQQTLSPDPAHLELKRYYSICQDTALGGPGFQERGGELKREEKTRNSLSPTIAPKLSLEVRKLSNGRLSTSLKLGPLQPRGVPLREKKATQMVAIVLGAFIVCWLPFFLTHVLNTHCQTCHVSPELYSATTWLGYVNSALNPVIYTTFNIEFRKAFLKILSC

[2] = target: 5-HT7 (human recombinant receptor, CHO-K1) (Homo sapiens, UniProt P34969); assay: Radioligand binding assay, 5-HT7
Chain of 5-HT7 (human recombinant receptor, CHO-K1) (P34969 whole entry): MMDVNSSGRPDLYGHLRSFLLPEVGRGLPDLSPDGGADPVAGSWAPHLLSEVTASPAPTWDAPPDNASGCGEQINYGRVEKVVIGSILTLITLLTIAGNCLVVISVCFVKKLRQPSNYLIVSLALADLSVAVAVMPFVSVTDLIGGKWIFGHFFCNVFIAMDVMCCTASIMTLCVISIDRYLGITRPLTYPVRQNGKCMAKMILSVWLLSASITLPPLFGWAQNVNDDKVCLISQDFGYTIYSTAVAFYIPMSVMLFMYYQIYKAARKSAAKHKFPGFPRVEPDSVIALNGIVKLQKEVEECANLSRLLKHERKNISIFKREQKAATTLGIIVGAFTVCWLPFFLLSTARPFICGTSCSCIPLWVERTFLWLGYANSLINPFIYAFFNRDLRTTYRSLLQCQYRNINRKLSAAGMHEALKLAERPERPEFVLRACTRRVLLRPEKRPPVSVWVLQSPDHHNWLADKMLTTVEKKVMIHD

lethality = assay: Lethality (LD50) in mice; type: in vivo; details: i.p.
D4 (hD4.2 receptor) = target: T2, D4 (hD4.2 receptor) (Homo sapiens, UniProt P21917, DEL265-296); assay: Radioligand binding assay, dopamine D4; details: [3H] YM-09151-2 0.06 nM; read-out: Binding affinity IC50 D4
T2 construct: purchased BioSignal Packard Inc., Montreal, Canada
T2 sequence (P21917 with tags, fused parts or gaps DEL265-296): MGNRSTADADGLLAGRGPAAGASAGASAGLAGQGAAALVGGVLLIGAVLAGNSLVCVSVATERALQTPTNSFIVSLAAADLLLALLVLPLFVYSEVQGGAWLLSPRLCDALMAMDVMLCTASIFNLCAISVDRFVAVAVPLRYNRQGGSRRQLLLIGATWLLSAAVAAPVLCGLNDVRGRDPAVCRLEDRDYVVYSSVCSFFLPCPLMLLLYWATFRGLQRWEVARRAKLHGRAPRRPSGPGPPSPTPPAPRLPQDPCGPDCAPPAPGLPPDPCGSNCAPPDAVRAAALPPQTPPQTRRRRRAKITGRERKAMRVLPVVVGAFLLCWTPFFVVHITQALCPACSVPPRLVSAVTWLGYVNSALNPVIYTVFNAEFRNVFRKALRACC
Method in brief: (§1)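 Competition binding used human receptor membranes: hD2L with 1 nM [3H]spiperone, and hD4.2 with 0.06 nM [3H]YM-09151-2 in Tris-HCl pH 7.4 with Mg/EDTA/K/Ca. Nonspecific binding was defined with 10 μM haloperidol for D2 and 10 μM clozapine for D4. IC50 was fitted by nonlinear regression from 7–8 concentrations in duplicate, across three assays.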

D1 receptor = D1 receptor (Homo sapiens, UniProt P21728); assay: Radioligand binding assay, dopamine D1
Chain of D1 receptor (P21728 whole entry): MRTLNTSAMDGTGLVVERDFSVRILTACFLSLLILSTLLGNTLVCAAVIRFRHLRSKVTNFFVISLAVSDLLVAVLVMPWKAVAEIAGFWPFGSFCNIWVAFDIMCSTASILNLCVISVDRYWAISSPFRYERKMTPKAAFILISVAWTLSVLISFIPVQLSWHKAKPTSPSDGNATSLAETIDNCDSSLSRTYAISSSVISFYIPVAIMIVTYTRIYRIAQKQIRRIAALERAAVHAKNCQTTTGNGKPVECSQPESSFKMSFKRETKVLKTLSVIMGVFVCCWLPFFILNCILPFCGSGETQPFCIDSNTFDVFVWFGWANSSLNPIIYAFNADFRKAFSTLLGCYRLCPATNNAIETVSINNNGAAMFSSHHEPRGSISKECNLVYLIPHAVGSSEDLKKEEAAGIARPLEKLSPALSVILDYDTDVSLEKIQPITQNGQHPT

[3] = target: T3, HeLa cells transfected with human 5-HT6 receptor (Homo sapiens, UniProt P50406); assay: Serotonin-stimulated cAMP accumulation in HeLa cells (EIA); type: cell-based
T3 construct: expressed in transfected cells; host or cells: HeLa
T3 sequence (P50406 whole entry): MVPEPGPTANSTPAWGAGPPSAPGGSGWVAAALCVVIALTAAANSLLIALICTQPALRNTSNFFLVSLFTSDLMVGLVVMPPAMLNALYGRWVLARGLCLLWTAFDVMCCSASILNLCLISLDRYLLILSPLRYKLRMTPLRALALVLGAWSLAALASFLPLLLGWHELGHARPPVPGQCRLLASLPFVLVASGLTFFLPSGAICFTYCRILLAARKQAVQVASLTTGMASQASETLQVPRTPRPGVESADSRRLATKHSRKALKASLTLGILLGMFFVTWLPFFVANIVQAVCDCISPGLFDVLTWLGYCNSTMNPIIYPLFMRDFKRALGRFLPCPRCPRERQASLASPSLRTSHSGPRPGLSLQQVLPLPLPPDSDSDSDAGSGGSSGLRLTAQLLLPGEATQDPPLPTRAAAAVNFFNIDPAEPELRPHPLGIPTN

[4] = test system: apomorphine-induced PPI disruption; assay: Apomorphine-induced PPI disruption in rat; details: for mean startle amplitude versus apomorphine positive control / effect of pretreatment on apomorphine-induced PPI disruption: rat; for mean startle amplitude versus apomorphine positive control: given 30 min before apomorphine; for effect of pretreatment on apomorphine-induced PPI disruption: i.p. 30 min before apomorphine (2 mg/kg, i.p.), 2.5, 5, 10 and 20 mg/kg
[5] = target: T4, 5-HT2c (human recombinant receptor, CHO-K1) (Homo sapiens, UniProt P28335); assay: Radioligand binding assay, 5-HT2c
T4 sequence (P28335 33-458): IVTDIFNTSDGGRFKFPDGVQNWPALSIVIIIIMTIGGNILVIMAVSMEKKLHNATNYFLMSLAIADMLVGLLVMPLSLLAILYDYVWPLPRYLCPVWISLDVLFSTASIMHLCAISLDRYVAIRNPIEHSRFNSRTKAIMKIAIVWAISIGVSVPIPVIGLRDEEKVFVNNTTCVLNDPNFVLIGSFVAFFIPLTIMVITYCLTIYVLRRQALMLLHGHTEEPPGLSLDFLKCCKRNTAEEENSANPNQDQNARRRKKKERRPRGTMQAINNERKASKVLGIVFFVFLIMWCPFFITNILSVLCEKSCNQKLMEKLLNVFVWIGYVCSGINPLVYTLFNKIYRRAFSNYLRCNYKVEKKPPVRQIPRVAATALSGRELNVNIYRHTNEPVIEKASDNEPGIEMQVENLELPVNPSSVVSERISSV

[6] = target: 5-HT2a (human recombinant receptor, CHO-K1) (Homo sapiens, UniProt P28223); assay: Radioligand binding assay, 5-HT2a
Chain of 5-HT2a (human recombinant receptor, CHO-K1) (P28223 whole entry): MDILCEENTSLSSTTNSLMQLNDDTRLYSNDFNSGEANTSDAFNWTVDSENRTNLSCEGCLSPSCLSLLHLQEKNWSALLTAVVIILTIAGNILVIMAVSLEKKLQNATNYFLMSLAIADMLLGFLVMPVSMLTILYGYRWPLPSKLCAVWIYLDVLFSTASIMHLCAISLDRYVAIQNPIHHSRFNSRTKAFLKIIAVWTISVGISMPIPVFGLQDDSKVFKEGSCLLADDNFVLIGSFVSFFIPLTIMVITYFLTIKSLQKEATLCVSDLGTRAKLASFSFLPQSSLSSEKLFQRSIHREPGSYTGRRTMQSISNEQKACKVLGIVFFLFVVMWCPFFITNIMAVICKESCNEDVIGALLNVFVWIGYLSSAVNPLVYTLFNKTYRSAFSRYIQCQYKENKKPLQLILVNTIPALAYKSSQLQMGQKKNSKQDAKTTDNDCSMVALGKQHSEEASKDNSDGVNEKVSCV

[7] = target: human serotonin 5-HT6 receptor (Homo sapiens, UniProt P50406); assay: [3H]LSD binding assay for cloned 5-HT6 receptors
Chain of human serotonin 5-HT6 receptor (P50406 whole entry): as the sequence (P50406 whole entry) above

D2 (hD2L receptor) = target: T5, D2 (hD2L receptor) (Homo sapiens, UniProt P14416); assay: Radioligand binding assay, dopamine D2; details: [3H] spiperone 1 nM; read-out: Binding affinity IC50 D2
T5 construct: purchased BioSignal Packard Inc., Montreal, Canada
T5 sequence (P14416 whole entry): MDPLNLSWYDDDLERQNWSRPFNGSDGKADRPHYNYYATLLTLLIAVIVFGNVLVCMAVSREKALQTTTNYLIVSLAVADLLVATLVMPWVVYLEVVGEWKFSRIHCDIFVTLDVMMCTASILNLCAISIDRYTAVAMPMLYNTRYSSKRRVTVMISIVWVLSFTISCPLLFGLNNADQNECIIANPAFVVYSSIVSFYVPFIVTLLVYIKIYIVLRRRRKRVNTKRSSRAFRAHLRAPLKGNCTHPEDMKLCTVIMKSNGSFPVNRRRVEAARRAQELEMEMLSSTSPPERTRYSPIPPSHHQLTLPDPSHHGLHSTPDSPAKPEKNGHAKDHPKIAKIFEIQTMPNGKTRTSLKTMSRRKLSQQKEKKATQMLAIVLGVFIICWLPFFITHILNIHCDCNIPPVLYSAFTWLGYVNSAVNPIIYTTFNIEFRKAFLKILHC
Method in brief: as §1

5-HT6 receptors = 5-HT6 receptors (Homo sapiens, UniProt P50406); details: human 5-HT6 receptors, literature; cited from earlier work
Chain of 5-HT6 receptors (P50406 whole entry): as the sequence (P50406 whole entry) above

food intake = details: literature; cited from earlier work
[8] = test system: yawning, stretching, and chewing; details: rats, literature; cited from earlier work
[9] = test system: rat maximal electroseizure threshold; details: literature; cited from earlier work
[10] = test system: retention of a previously learned task; details: rats, literature; cited from earlier work
[11] = test system: extracellular glutamate levels in the frontal cortex and dorsal hippocampus; details: literature; cited from earlier work

C[C@H](c1ccccc1)n1c(=O)c2c(N3CCN(C)CC3)cc(Cl)cc2n(Cc2ccccc2)c1=O [Example 40, 1-benzyl-7-chloro-5-(4-methyl-piperazin-1yl)-3-[(R)-1-phenyl-ethyl]-1H-quinazoline-2,4-dione]
IC50 [1]: 4350 nM | Rotarod Deficit TD50 (rotarod deficit): 139 mg/kg, ip | rotarod dysfunction (rotarod deficit): 75% | IC50 (D3 (hD3 receptor)): 983 nM | IC50 [2]: 7420 nM | Lethal Degrees LD50 (lethality): >300 mg/kg, ip | IC50 (D4 (hD4.2 receptor)): > 10000 nM | IC50 (D1 receptor): 2710 nM | cytotoxicity [3]: did not show any cytotoxicity at all | effect on serotonin-stimulated cAMP accumulation (in words) ([3]; HeLa cells, FIG. 1): inhibited serotonin-stimulated cAMP accumulation in a dose-dependent manner | inhibition at 0.001 µM ([3]; HeLa, read-out: inhibition of cAMP increase induced by 0.3 μM serotonin, compound 0.001 μM): 0% | inhibition at 0.01 µM ([3]; HeLa, read-out: inhibition of cAMP increase induced by 0.3 μM serotonin, compound 0.01 μM): 35% | inhibition at 0.1 µM ([3]; HeLa, read-out: inhibition of cAMP increase induced by 0.3 μM serotonin, compound 0.1 μM): 95% | inhibition at 1 µM ([3]; HeLa, read-out: inhibition of cAMP increase induced by 0.3 μM serotonin, compound 1 μM): 100% | inhibition at 10 µM ([3]; HeLa, read-out: inhibition of cAMP increase induced by 0.3 μM serotonin, compound 10 μM): 100% | effect of compound alone on PPI versus vehicle control ([4]; rat, 2.5, 5, 10 and 20 mg/kg i.p. alone): no significant effects | mean startle amplitude versus apomorphine positive control [4]: did not induce significant difference in mean startle amplitude | effect of pretreatment on apomorphine-induced PPI disruption [4]: found to inhibit apomorphine (2 mg/kg, i.p.)-induced PPI disruption | IC50 [5]: 477 nM | IC50 [6]: 266 nM | IC50 [7]: 1.6 nM | IC50 (D2 (hD2L receptor)): > 10000 nM

C[C@H](c1ccccc1)n1c(=O)c2c(N3CCNCC3)cc(Cl)cc2n(Cc2ccccc2)c1=O [Example 68, 1-benzyl-7-chloro-3-[(R)-1-phenyl-ethyl]-5-piperazin-1yl-1H-quinazoline-2,4-dione]
Rotarod Deficit TD50 (rotarod deficit): 122 mg/kg, ip | rotarod dysfunction (rotarod deficit): 100% | Lethal Degrees LD50 (lethality): 152 mg/kg, ip | mean startle amplitude versus apomorphine positive control [4]: did not induce significant difference in mean startle amplitude | effect of pretreatment on apomorphine-induced PPI disruption [4]: found to inhibit apomorphine (2 mg/kg, i.p.)-induced PPI disruption | IC50 [7]: 6.8 nM

COc1ccc2c(c1)c(CCN(C)C)cn2S(=O)(=O)c1ccccc1 [MS-245]
pA2, antagonist (5-HT6 receptors): 8.88

CNc1cc(NS(=O)(=O)c2ccc(N)cc2)nc(NC)n1 [Ro 04-6790]
food intake by rats (food intake): decreased food intake | induction of yawning, stretching, and chewing behavior [8]: capable of inducing this same effect | anticonvulsant activity [9]: possess anticonvulsant activity

COc1ccc(NS(=O)(=O)c2sc3ccc(Cl)cc3c2C)cc1N1CCNCC1 [SB-271046, reference compound]
Rotarod Deficit TD50 (rotarod deficit): 112 mg/kg, ip | retention of a previously learned task in water maze [10]: significant improvement in retention of a previously learned task | extracellular glutamate levels in the frontal cortex and dorsal hippocampus [11]: increased extracellular glutamate levels in the frontal cortex and dorsal hippocampus by several times | anticonvulsant activity [9]: possess anticonvulsant activity
